# Laboratory results as given in article PMC6712483, “BlsA Is a Low to Moderate Temperature Blue Light Photoreceptor in the Human Pathogen Acinetobacter baumannii” (Frontiers in Microbiology, 2019).
# Biological target: T1, BlsA (dBlsA, His-BlsA) (Acinetobacter baumannii, UniProt V5VB82)
# T1 construct: gene ycgF; short BLUF protein, recombinant His-tag fusion, purified as in Abatedaga et al. 2017; approximately 20 kDa; residues named Tyr7, Gln51, Trp78, Trp92
# Assay: cofactor fluorescence emission and anisotropy (steady-state and time-resolved), UV-vis photocycle
# Format: binding
# Details: dark-adapted state; cofactor bound on purification; temperature series, compared with free FAD
# T1 sequence (V5VB82 entry or part of it): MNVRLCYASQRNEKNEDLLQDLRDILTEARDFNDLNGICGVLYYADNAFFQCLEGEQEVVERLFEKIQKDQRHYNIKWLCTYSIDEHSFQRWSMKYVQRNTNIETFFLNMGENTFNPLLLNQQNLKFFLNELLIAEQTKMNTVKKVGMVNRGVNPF
smiles,measurement,value
Cc1cc2nc3c(=O)[nH]c(=O)nc-3n(C[C@H](O)[C@H](O)[C@H](O)COP(=O)(O)OP(=O)(O)OC[C@H]3O[C@@H](n4cnc5c(N)ncnc54)[C@H](O)[C@@H]3O)c2cc1C [FAD],"cofactor fluorescence emission and anisotropy (steady-state and time-resolved),",the steady-state anisotropy of the cofactor in dBlsA solutions is strongly decreased
